According to patent US20250327191A1, “CORROSSION INHIBITOR COMPOSITIONS” (Tata Consultancy Services Limited, priority 2024, published 2025):

Test: Corrosion inhibition on steel coupons immersed in 1M HCl for 2 hrs
Experimental: The corrosion inhibitor composition of the example—1 is tested for its corrosion inhibition effect on steel at two temperatures. The steel being the ferrous alloy has the following composition:
The steel coupons are initially abraded with various emery papers of decreasing coarseness i.e. 80, 150, 220, 400 grits to obtain a fine finish surface. The fine finished coupons are cleaned with acetone and then wrapped in paper to avoid any further oxidation and stored in a safe and dry place until further use. The 400 grit finished coupons are immersed in 100 ml 1M HCl solution for 2 hrs at room temperature and at […], to find out the corrosion rate. Similarly, the fine finished coupons are also immersed in 100 ml 1M HCl along with the composition of the example—1 with an effective concentration of inhibitor 200, 500 and 1000 ppm for 2 hrs at room temperatures. […] As, it is also essential for the corrosion inhibitors to perform well in case of higher temperatures. Further, the composition of example—1 is tested at higher temperatures. The below Table-2 provides the information on test results. It is evident from the Table-2 that the inhibition efficiencies at 60° C. is relatively higher than that of room temperature. The average corrosion rates (CR) at room temperature and 60° C. in 1 M HCl without inhibitor for 2 hrs immersion are 1.1081 cm/y and 16.42325 cm/y respectively. The inhibition efficiency (IE) is calculated using the formula: […]

Cc1ccc(C=O)s1 [5-Methyl-2-thiophenecarboxaldehyde, 5-methyl-2-thiophenecarboxaldehyde]
IE (%) (200 ppm, no KI intensifier, 27 °C): 54.03%
IE (%) (500 ppm, no KI intensifier, 27 °C): 63.58%
IE (%) (1000 ppm, 0.1 wt % KI, 27 °C): 84.07%
IE (%) (1000 ppm, 0.25 wt % KI, 27 °C): 90.43%
IE (%) (1000 ppm, 0.5 wt % KI, 27 °C): 92.36%
IE (%) (1000 ppm, 0.5 wt % KI, 60 °C): 95.06%
IE (%) (1000 ppm, no KI intensifier, 27 °C): 72.65%
